Key:
[1] = dissolution in water and freedom from haze and sediment at 350 mg calcium per eight fluid ounce serving; format: physicochemical
From the text: The solution remained completely free of haze and sediment for at least two days of storage at room temperature. Similar or even better results were obtained from the salts prepared having calcium:citrate mole ratios lower than 2:2, even when dissolved in water at higher concentrations.
These powders, in spite of the sediment produced, would provide very acceptable performance in many, if not most, food applications, including instant beverage mixes and acidified RTD beverages.
This behavior might also be acceptable in some situations (i.e., opaque instant beverage mixes), but appears to represent a practical upper limit for applications that require high levels of soluble calcium and/or require a sediment-free transparent appearance.
As an alternative to freeze drying, an amorphous 2:2 mole ratio calcium citrate salt, using the same ingredients as in Example 1, was also successfully produced via spray drying (i.e., pilot scale drying using standard operating conditions and procedures). In this case, chilled calcium hydroxide and citric acid solutions were combined and rapidly spray dried before solidification or sediment formation could occur. […] In a large scale commercial process, the citric acid and calcium hydroxide (or other suitable reagents) would be beneficially combined just prior to spray drying to limit the potential for solidification or sediment formation.
One batch of the chilled citric acid solution was poured into a mix tank jacketed with cooling water and one batch of calcium hydroxide suspension was added with stirring. […] The clear solution was immediately pumped into a semi-works scale spray dryer, fitted with an atomizing nozzle, at a flow rate of about 0.5 kg per minute. Additional batches of citric acid solution and calcium hydroxide suspension were similarly added to the mix tank as needed to prevent complete emptying. A sample of fine white powder was collected from the spray dryer after ten minutes of operation. […] After a further fifteen minutes, the cooling water was shut off from the jacketed mix tank. […] In less than one hour, the atomizing nozzle and pipe between the mix tank and the spray dryer became plugged with an accumulated deposit of insoluble crystalline calcium citrate.

[2] = calcium-fortified powdered instant drink mixes reconstituted with cold water
Protocol: One sample of the amorphous salt (2.0 g) was combined with 17.0 g sweetened Cherry Kool-Aid® powdered instant drink mix in a 400 ml beaker. The powdered drink mix contained sugar, fructose, citric acid, calcium phosphate (not a significant source of calcium), artificial flavor, artificial colors, and ascorbic acid. Another sample of the amorphous salt (2.0 g) was combined with 2.0 g artificially-sweetened Lemon CRYSTAL LIGHT® powdered instant drink mix and placed in a 400 ml beaker. The powdered drink mix contained citric acid, potassium citrate, maltodextrin, aspartame, magnesium oxide, natural flavor, lemon juice solids, acesulfame potassium, artificial colors, and BHA.

[3] = room temperature; cited from earlier work
[4] = shelf life testing of calcium-fortified RTD beverage; format: physicochemical; conditions: CRYSTAL LIGHT RTD lemon beverage
Protocol: Fortified RTD beverages were formulated with several forms of calcium citrate. The visual appearance, flavor, and stability of the products were evaluated over a seven-month period by an experienced panel. Identical samples of each fortified beverage were prepared for shelf life testing under both ambient (22° C.) and refrigerated (4° C.) storage conditions.
The freeze dried amorphous 2:2 mole ratio calcium citrate salt (17% calcium) of Example 1 was successfully used to fortify a ready-to-drink sugar-free lemon-flavored beverage (CRYSTAL LIGHT®) with 350 mg calcium per eight fluid ounce serving (“excellent source of calcium” level). To formulate the calcium-fortified powdered mix, eight fluid ounces of commercial CRYSTAL LIGHT® RTD beverage mix was mixed thoroughly with 2 g of the freeze dried amorphous 2:2 mole ratio calcium citrate salt.

[5] = pH and initial solution appearance of powders added to water at 1 percent; format: physicochemical; conditions: powder added to water at a level of 1 percent
Protocol: Powders prepared according to the present invention, as described above, were added to water at a level of 1 percent to measure pH and assess initial solution appearance. The crystalline commercial 3:2 mole ratio TCC reference material was included for comparison.

[6] = freeze dried powders of Example 1 or commercial salts, room temperature water, 350 mg calcium per eight fluid ounce serving

## TCC tetrahydrate [3:2*, reference compound]
[1]; 350 mg calcium per eight fluid ounce serving
  haze and sediment produced at first, on or soon after addition to water: immediately produced a large amount of a coarse, gritty white sediment
[1]; [6]
  dissolution behaviour on addition to water: did not completely disperse in water
[2]; 1.7 g in place of the amorphous salt, Cherry Kool-Aid and Lemon CRYSTAL LIGHT mixes
  sediment formation in reconstituted beverage: large amounts of coarse gritty sediment were formed immediately
[2]; with rapid stirring or with the passage of time
  dissolution of the sediment: did not dissolve
[3]
  solubility in water: less than 0.1%
  soluble calcium provided per fluid ounce of water: about 6 mg
[4]; amounts to provide the same level of calcium
  sediment in fortified RTD beverage upon admixture of the ingredients: noticeable sediment formation

## O=C([O-])CC(O)(CC(=O)O)C(=O)[O-].[Ca+2] [2:2, dicalcium citrate]
[1]; freeze dried powder, 2 g in 240 ml water, storage at room temperature
  time solution remained completely free of haze and sediment: at least two
[1]; [6]
  dissolution behaviour on addition to water: instantly dissolving clear solution
[1]; larger spray dryer, sample collected after ten minutes of operation, feed cooled, 350 mg calcium per eight fluid ounces
  dissolution in cold water: rapidly dissolved in cold water without haze or precipitate
[1]; larger spray dryer, sample collected after thirty minutes, cooling water shut off
  dissolution in water: did not dissolve completely in water
[1]; spray dried salt of Example 2 (pilot scale), 2 g in 240 ml room temperature water, 350 mg calcium per eight ounce serving
  dissolution behaviour on addition to water: instantly dissolving clear solution
[1]; spray dried salt of Example 2 (pilot scale), room temperature
  time solution remained completely free of sediment: at least three
[2]; 2.0 g salt with Cherry Kool-Aid or Lemon CRYSTAL LIGHT mix, eight fluid ounces cold water, no stirring
  dissolution when water was added to fortified drink mix: dissolved immediately
[2]; Cherry Kool-Aid and Lemon CRYSTAL LIGHT mixes, 350 mg calcium per serving
  time reconstituted beverage remained free of sediment: at least 24 hours
[5]
  Initial Solution Appearance: No haze; no sediment
  Solution pH: 4.1
[4]; 350 mg calcium per eight fluid ounces, seven-month period, room temperature (22° C.) and refrigeration (4° C.)
  sediment in fortified RTD beverage during shelf life evaluation: remained sediment free

## sesqui-calcium citrate [1.5:2]
[5]
  Initial Solution Appearance: No haze; no sediment
  Solution pH: 3.8

## O=C([O-])CC(O)(CC(=O)O)C(=O)O.O=C([O-])CC(O)(CC(=O)O)C(=O)O.[Ca+2] [1:2, monocalcium citrate]
[5]
  Initial Solution Appearance: No haze; no sediment
  Solution pH: 3.4

— patent US7713559B2, “Amorphous water-soluble calcium citrate salts and method of making and using same” (Kraft Foods Global Brands LLC, priority 2004, dated 2010)
